Measured values published in patent publication US12053442B2, “Methods and compositions for neuroprotection” (The Feinstein Institutes for Medical Research, priority 2020, dated 2024).

Legend:
[1] = ESI-MS evaluation of active cocktail components (stability, molecular interaction); type: physicochemical; details: ESI-MS after ethyl acetate extraction (FIG. 6)
Description: Then the molecular mass of the extracted components was analyzed by electrospray ionization mass spectrometry (ESI-MS) (FIG. 6). […] Then the preparation was centrifuged at 10 000 g for 2 min at room temperature. The top layer (ethyl acetate) was then separated and transferred to a new vial. Another […] ethyl acetate was added into the bottom layer, and the extraction was repeated. The combined organic phase was dried with nitrogen gas. The residue was reconstituted in 500 μL methanol, vortexed for 10 s, and centrifuged at 13 000 g for 2 min. The final extract was transferred into a polypropylene vial. Then 30 μL of the final extract was injected and analyzed on a LTQ XL™ Linear Ion Trap Mass Spectrometer (Thermo Fisher Scientific, Waltham, MA), and the data was analyzed using Xcalibur 3.1 (Thermo Fisher Scientific, Waltham, MA).

[2] = Solubility in water during cocktail formulation; type: physicochemical; details: formulation NWH-1
control and CA rats = test: Cocktail development trials to assess survival benefit (Table 9); type: in vivo, rat; details: reason for removal from the cocktail
Description: Our goal was to provide the most benefit with the least number of agents in a single concoction. […] This information can aid in selecting agents that can be appropriately and practically combined. […] Each drug, individually and in various combinations, was administered to normal rats (n=3) to determine any potential adverse effects, such as immediate death.

Compound	Stability of drug in the final cocktail formulation by mass spectra [1]	other results
CN(C)C(=N)N=C(N)N [metformin, Metformin]	intact and stable	
COC1=C(OC)C(=O)C(C/C=C(\C)CC/C=C(\C)CC/C=C(\C)CC/C=C(\C)CC/C=C(\C)CC/C=C(\C)CC/C=C(\C)CC/C=C(\C)CC/C=C(\C)CCC=C(C)C)=C(C)C1=O [CoQ10, Coenzyme Q10]		Solubility in water [2]: insoluble in
Nc1ncnc2c1ncn2[C@@H]1O[C@H](COP(=O)([O-])OP(=O)(O)OP(=O)(O)O)[C@@H](O)[C@H]1O.[Cl-].[Mg+2] [ATP-magnesium chloride, adenosine triphosphate-magnesium chloride]		Adverse effect seen in preliminary trials (control and CA rats): hypotensive effect
CC1=NN(c2ccccc2)C(=O)C1 [edaravone, Edaravone]	intact and stable	
C/C(=C(\CCOC(=O)C(C)C)SS/C(CCOC(=O)C(C)C)=C(/C)N(C=O)Cc1cnc(C)nc1N)N(C=O)Cc1cnc(C)nc1N [sulbutiamine, Sulbutiamine]		Solubility in water [2]: insoluble in
CC(=O)N[C@@H](CS)C(=O)O [N-acetyl cysteine]	intact and stable	
N=C(N)NC(=O)c1cnn(-c2cccc3ncccc23)c1C1CC1 [zoniporide, Zoniporide]	intact and stable	
O=C1O[C@H]([C@@H](O)CO)C(O)=C1O [vitamin C, ascorbic acid]	intact and stable	
